ChEMBL document CHEMBL1201862, “PubChem BioAssay data set” (2004)
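Each compound was tested at five concentrations against cells in 96-well plates for 48 hours. Abbreviation: GI50, concentration required for 50% inhibition of growth.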 Activity calls are given as the source filed them. Cut-off read from the data, not from the text of the source: active = GI50 up to about 1.1 µM and inactive = higher.

Key:
Assay in all cases: NCI anticancer screen, dose series, 48 h
LXFL 529 = system: LXFL 529
M19-MEL = system: M19-MEL
KM-20L2 = system: KM-20L2
DMS-114 = system: DMS-114
XF498 = system: XF498
RXF 631 = system: RXF 631
DLD-1 = system: DLD-1
HOP-18 = system: HOP-18
DMS-273 = system: DMS-273

Measured: GI50

CCCCCCCCCCNC(=S)OCCCC
inactive: LXFL 529 22.9 µM | M19-MEL 35.3 µM | KM-20L2 19.1 µM | DMS-114 22.9 µM | XF498 20.1 µM | RXF 631 26.4 µM | DLD-1 27.2 µM | HOP-18 26.9 µM | DMS-273 20.3 µM

COc1cc(Br)c(CC2=NCCc3cc(OC)c(OC)cc32)cc1OC
inactive: LXFL 529 12.5 µM | M19-MEL 27.9 µM | KM-20L2 3.18 µM | DMS-114 8.89 µM | RXF 631 10.2 µM | DLD-1 45.4 µM | HOP-18 11.3 µM | DMS-273 15.9 µM

COS(=O)(=O)OCCC(NC(=O)OCc1ccccc1)C(=O)OCc1ccccc1 (centres undefined)
inactive: LXFL 529 > 100 µM | M19-MEL > 100 µM | KM-20L2 > 100 µM | DMS-114 > 100 µM | DLD-1 > 100 µM | HOP-18 > 100 µM | DMS-273 > 100 µM

CN(C)C(=S)/N=c1\ss/c(=N/c2ccccc2)n1C
inactive: LXFL 529 > 100 µM | M19-MEL > 100 µM | KM-20L2 > 100 µM | DMS-114 77.1 µM | RXF 631 44.6 µM | DLD-1 > 100 µM | HOP-18 > 100 µM | DMS-273 > 100 µM

O=[N+]([O-])c1ccc(OCCNc2cccc3ccccc23)cc1
inactive: LXFL 529 33.3 µM | M19-MEL > 100 µM | KM-20L2 > 100 µM | DMS-114 52.8 µM | XF498 > 100 µM | RXF 631 > 100 µM | DLD-1 37.9 µM | HOP-18 > 100 µM | DMS-273 46.7 µM

CCCCCCCC(CC(=O)NC(CO)C(=O)NC(CO)CC(C)C)OC(=O)CC(CCCCCCC)OC(=O)CC(CCCCCCC)OC1OC(C)C(O)C(OC2OC(C)C(O)C(O)C2O)C1O (centres undefined)
inactive: LXFL 529 4.84 µM | M19-MEL 10.4 µM | KM-20L2 15.7 µM | DMS-114 3.83 µM | DLD-1 16 µM | HOP-18 17.6 µM | DMS-273 10.9 µM

C[Si](C)(C)OC1(C#N)C2C3CC4C2C(=O)C2C4C3C21 (centres undefined)
inactive: LXFL 529 > 100 µM | M19-MEL > 100 µM | KM-20L2 > 100 µM | DMS-114 > 100 µM | DLD-1 > 100 µM | HOP-18 > 100 µM | DMS-273 > 100 µM

O=C(Nc1nc2ccccc2n1Cc1ccc(Cl)cc1)NC12CC3CC(CC(C3)C1)C2
inactive: LXFL 529 20.3 µM | M19-MEL 39.4 µM | KM-20L2 64.7 µM | DMS-114 24.3 µM | XF498 13.4 µM | DLD-1 36.2 µM | HOP-18 27.6 µM | DMS-273 13.8 µM

N#C/N=C(\NCCc1c[nH]c2ccccc12)NCc1ccccc1
inactive: LXFL 529 48.2 µM | M19-MEL 81.3 µM | KM-20L2 16.3 µM | DMS-114 32.9 µM | XF498 29.6 µM | DLD-1 94.8 µM | DMS-273 69.2 µM

CSC1(C)CC2C(CC1N1CCOCC1)C2(C)C (centres undefined)
inactive: LXFL 529 > 100 µM | M19-MEL > 100 µM | DMS-114 > 100 µM | XF498 > 100 µM | DLD-1 > 100 µM | HOP-18 > 100 µM | DMS-273 > 100 µM

CC(C)CCC[C@@H](C)C1CCC2[C@@H]3CC=C4C[C@@H](C(=O)NCCN(C)C)CC[C@]4(C)C3CC[C@@]21C (some centres undefined)
inactive: LXFL 529 13.9 µM | M19-MEL 19.7 µM | KM-20L2 83 µM | DMS-114 14.8 µM | XF498 8.11 µM | DLD-1 36.1 µM | HOP-18 22.4 µM | DMS-273 24.4 µM

CCCC(OCC)(OCC)OCC
inactive: LXFL 529 > 100 µM | M19-MEL > 100 µM | KM-20L2 > 100 µM | DMS-114 69 µM | XF498 > 100 µM | RXF 631 > 100 µM | DLD-1 > 100 µM | HOP-18 > 100 µM | DMS-273 52.1 µM

O=c1c(O)cccn1C1OC(CO)C(O)C1O (centres undefined)
inactive: LXFL 529 > 100 µM | KM-20L2 > 100 µM | DMS-114 > 100 µM | RXF 631 > 100 µM | DLD-1 > 100 µM | HOP-18 > 100 µM | DMS-273 > 100 µM

CC1=Nc2c(ccc3c2C(=O)c2ccccc2C3=O)NC(c2cccc3c2CCC3)C1 (centres undefined)
inactive: LXFL 529 > 100 µM | M19-MEL > 43.4 µM | KM-20L2 > 100 µM | XF498 > 100 µM | RXF 631 70.1 µM | DLD-1 46.1 µM | HOP-18 > 67.3 µM | DMS-273 > 73.6 µM

CC(=O)OC1CC2C(C)(C)C(=O)C=C[C@]2(C)C2CCC3(C)C(c4ccoc4)C(=O)[C@H]4O[C@]43[C@]12C (some centres undefined)
inactive: LXFL 529 33.7 µM | M19-MEL 20.4 µM | KM-20L2 > 10 µM | DMS-114 > 100 µM | DLD-1 13.6 µM
